Test system: ApoA-I mRNA
Assay: Quantification of ApoA-I mRNA in HepG2 cells (real-time PCR)
Assay type: cell-based
Parameters: key: Active: An active compound was defined as one that caused a ≧20% increase in ApoA-I mRNA at a concentration less than or equal to 100 μM
Settings: fold induction relative to DMSO control, concentration less than or equal to 100 μM
Protocol: In this example, ApoA-I mRNA in tissue culture cells was quantitated to measure the transcriptional up-regulation of ApoA-I when treated with a compound of the invention.
HepG2 cells (approximately 2×10^5 per well) were placed in a 24-well plate in approximately 400 μL MEM, supplemented with 0.5% (v/v) FBS, 24 h before addition of the compound of interest. At time of harvesting, the spent media was removed from the HepG2 cells and immediately placed on ice (for immediate use) or at −80° C. (for future use) in ApoA-I and albumin ELISAs. The cells remaining in the plate wells were rinsed in 200 μL PBS. PBS was carefully removed to avoid removing any loosely attached cells.
Once the PBS was removed, 85 μL cell lysis solution was added the cells in each well and incubated for 5-10 minutes at room temperature, to allow for complete cell lysis and detachment. mRNA was then prepared using the “mRNA Catcher PLUS plate” from Invitrogen, according to the protocol supplied. After the last wash, as much wash buffer as possible was aspirated without allowing the wells to dry. Elution Buffer (E3, 80 μL) was then added to each well. mRNA was then eluted by incubating the mRNA Catcher PLUS plate with Elution Buffer for 5 minutes at 68° C. and then immediately placing the plate on ice.
The eluted mRNA isolated was then used in a one-step real-time […] reaction, using components of the Ultra Sense Kit together with Applied Biosystems primer-probe mixes. Real-time PCR data was analyzed, using the Ct values, to determine the fold induction of each unknown sample, relative to the control (that is, relative to the control for each independent DMSO concentration).
An active compound was defined as one that caused a ≧20% increase in ApoA-I mRNA at a concentration less than or equal to 100 μM.

Row | Compound | Effect on ApoA-I mRNA levels
1 | O=c1c2ccccc2nc(-c2ccc(C(F)(F)F)nc2)n1-c1ccc(Cl)cc1 [Example 53, 3-(4-chlorophenyl)-2-(6-(trifluoromethyl)pyridin-3-yl)quinazolin-4(3H)-one] | Active
2 | Cc1cc(-c2nc3ccccc3c(=O)n2-c2ccc(C3CCCCC3)cc2)cc(C)c1OCCO [Example 26, 3-(4-cyclohexylphenyl)-2-(4-(2-hydroxyethoxy)-3,5-dimethylphenyl)quinazolin-4(3H)-one] | Active
3 | CCC(C)c1ccc(-n2c(-c3ccc4[nH]ncc4c3)nc3ccccc3c2=O)cc1 (centres unmarked) [Example 72, 3-(4-sec-butylphenyl)-2-(1H-indazol-5-yl)quinazolin-4(3H)-one] | Active
4 | CCC(C)c1ccc(-n2c(-c3cncc(Br)c3)nc3ccccc3c2=O)cc1 (centres unmarked) [Example 57, 2-(5-bromopyridin-3-yl)-3-(4-sec-butylphenyl)quinazolin-4(3H)-one] | Active
5 | O=c1c2ccccc2nc(-c2ccc3cc[nH]c3c2)n1-c1ccc(Cl)cc1 [Example 85, 3-(4-chlorophenyl)-2-(1H-indol-6-yl)quinazolin-4(3H)-one] | Active
6 | CCN(CC)c1cncc(-c2nc3ccccc3c(=O)n2-c2ccc(Cl)cc2)c1 [Example 61, 3-(4-chlorophenyl)-2-(5-(diethylamino)pyridin-3-yl)quinazolin-4(3H)-one] | Active
7 | CCC(C)c1ccc(-n2c(-c3ccc(F)nc3)nc3ccccc3c2=O)cc1 (centres unmarked) [Example 51, 3-(4-sec-butylphenyl)-2-(6-fluoropyridin-3-yl)quinazolin-4(3H)-one] | Active
8 | Cc1cc(-c2nc3ccccc3c(=O)n2-c2ccc(N3CCOCC3)cc2)cc(C)c1OCCO [Example 21, 2-(4-(2-hydroxyethoxy)-3,5-dimethylphenyl)-3-(4-morpholinophenyl)quinazolin-4(3H)-one] | Active
9 | CCC(C)c1ccc(-n2c(-c3cc(C)c(OCCO)c(C)c3)nc3ccc(F)cc3c2=O)cc1 (centres unmarked) [Example 9, 3-(4-sec-butylphenyl)-6-fluoro-2-(4-(2-hydroxyethoxy)-3,5-dimethylphenyl)quinazolin-4(3H)-one] | Active
10 | Cc1ccc(-c2nc3ccccc3c(=O)n2-c2ccc(C3CCCC3)cc2)cn1 [Example 62, 3-(4-cyclopentylphenyl)-2-(6-methylpyridin-3-yl)quinazolin-4(3H)-one] | Active
11 | CCC(C)c1ccc(-n2c(-c3ccc4cc[nH]c4c3)nc3ccccc3c2=O)cc1 (centres unmarked) [Example 87, 3-(4-sec-butylphenyl)-2-(1H-indol-6-yl)quinazolin-4(3H)-one] | Active
12 | Cc1cc(-c2nc3ccccc3c(=O)n2-c2ccc(NS(=O)(=O)C(C)C)cc2)cc(C)c1OCCO [Example 31, N-(4-(2-(4-(2-hydroxyethoxy)-3,5-dimethylphenyl)-4-oxoquinazolin-3(4H)-yl)phenyl)propane-2-sulfonamide] | Active
13 | O=c1c2ccccc2nc(-c2ccc3[nH]ccc3c2)n1-c1ccc(C2CCCC2)cc1 [Example 84, 3-(4-cyclopentylphenyl)-2-(1H-indol-5-yl)quinazolin-4(3H)-one] | Active
14 | CCC(C)c1ccc(-n2c(-c3cccc4cc[nH]c34)nc3ccccc3c2=O)cc1 (centres unmarked) [Example 88, 3-(4-sec-butylphenyl)-2-(1H-indol-7-yl)quinazolin-4(3H)-one] | Active
15 | CCN(CC)c1ccc(-c2nc3ccccc3c(=O)n2-c2ccc(Cl)cc2)cn1 [Example 43, 3-(4-chlorophenyl)-2-(6-(diethylamino)pyridin-3-yl)quinazolin-4(3H)-one] | Active
16 | O=c1c2ccccc2nc(-c2cnc3c(ccn3S(=O)(=O)c3ccc(F)cc3)c2)n1-c1ccc(Cl)cc1 [Example 79, 3-(4-chlorophenyl)-2-(1-(4-fluorophenylsulfonyl)-1H-pyrrolo[2,3-b]pyridin-5-yl)quinazolin-4(3H)-one] | Active
17 | Cc1cc(-c2nc3ccccc3c(=O)n2-c2ccc(N(C)C)cc2)cc(C)c1OCCO [Example 32, 3-(4-(dimethylamino)phenyl)-2-(4-(2-hydroxyethoxy)-3,5-dimethylphenyl)quinazolin-4(3H)-one] | Active
18 | CCC(C)c1ccc(-n2c(-c3ccc(Oc4ccccc4)nc3)nc3ccccc3c2=O)cc1 (centres unmarked) [Example 52, 3-(4-sec-butylphenyl)-2-(6-phenoxypyridin-3-yl)quinazolin-4(3H)-one] | Active

Row | Compound | Effect on ApoA-I mRNA levels
19 | O=c1c2ccccc2nc(-c2cnc3ccccc3c2)n1-c1ccc(Cl)cc1 [Example 36, 3-(4-chlorophenyl)-2-(quinolin-3-yl)quinazolin-4(3H)-one] | Active
20 | Cc1cc(-c2nc3ccccc3c(=O)n2-c2ccc(NS(C)(=O)=O)cc2)cc(C)c1OCCO [Example 29, N-(4-(2-(4-(2-hydroxyethoxy)-3,5-dimethylphenyl)-4-oxoquinazolin-3(4H)-yl)phenyl)methanesulfonamide] | Active
21 | CCC(C)c1ccc(-n2c(-c3ccc(N(CC)CC)nc3)nc3ccccc3c2=O)cc1 (centres unmarked) [Example 44, 3-(4-sec-butylphenyl)-2-(6-(diethylamino)pyridin-3-yl)quinazolin-4(3H)-one] | Active
22 | Cc1ccc(-c2nc3ccccc3c(=O)n2-c2ccc(NS(C)(=O)=O)cc2)cn1 [Example 66, N-(4-(2-(6-methylpyridin-3-yl)-4-oxoquinazolin-3(4H)-yl)phenyl)methanesulfonamide] | Active
23 | Cn1ccc2cc(-c3nc4ccccc4c(=O)n3-c3ccc(Cl)cc3)ccc21 [Example 83, 3-(4-chlorophenyl)-2-(1-methyl-1H-indol-5-yl)quinazolin-4(3H)-one] | Active
24 | Cc1cc(-c2nc3ccccc3c(=O)n2-c2ccc(NC(=O)C(C)C)cc2)cc(C)c1OCCO [Example 24, N-(4-(2-(4-(2-hydroxyethoxy)-3,5-dimethylphenyl)-4-oxoquinazolin-3(4H)-yl)phenyl)isobutyramide] | Active
25 | Cc1cc(-c2nc3ccccc3c(=O)n2-c2ccc(C(C)(C)C)cc2)cc(C)c1OCCO [Example 22, 3-(4-tert-butylphenyl)-2-(4-(2-hydroxyethoxy)-3,5-dimethylphenyl)quinazolin-4(3H)-one] | Active
26 | Cc1cc(-c2nc3ccccc3c(=O)n2-c2ccc(NC=O)cc2)cc(C)c1OCCO [Example 27, N-(4-(2-(4-(2-hydroxyethoxy)-3,5-dimethylphenyl)-4-oxoquinazolin-3(4H)-yl)phenyl)formamide] | Active
27 | O=c1c2ccccc2nc(-c2cccc3cc[nH]c23)n1-c1ccc(Cl)cc1 [Example 86, 3-(4-chlorophenyl)-2-(1H-indol-7-yl)quinazolin-4(3H)-one] | Active
28 | CC(=O)Nc1ccc(-n2c(-c3cc(C)c(OCCO)c(C)c3)nc3ccccc3c2=O)cc1 [Example 23, N-(4-(2-(4-(2-hydroxyethoxy)-3,5-dimethylphenyl)-4-oxoquinazolin-3(4H)-yl)phenyl)acetamide] | Active
29 | CCC(C)c1ccc(-n2c(-c3cncnc3)nc3ccccc3c2=O)cc1 (centres unmarked) [Example 45, 3-(4-sec-butylphenyl)-2-(pyrimidin-5-yl)quinazolin-4(3H)-one] | Active
30 | Cc1cc(-c2nc3ccccc3c(=O)n2-c2ccc(C(F)(F)F)cc2)cc(C)c1OCCO [Example 11, 2-(4-(2-hydroxyethoxy)-3,5-dimethylphenyl)-3-(4-(trifluoromethyl)phenyl)quinazolin-4(3H)-one] | Active
31 | COC(=O)c1ccc(-n2c(-c3cc(C)c(OCCO)c(C)c3)nc3ccccc3c2=O)cc1 [Example 25, methyl 4-(2-(4-(2-hydroxyethoxy)-3,5-dimethylphenyl)-4-oxoquinazolin-3(4H)-yl)benzoate] | Active
32 | CCC(C)c1ccc(-n2c(-c3ccc(C)nc3)nc3ccccc3c2=O)cc1 (centres unmarked) [Example 46, 3-(4-sec-butylphenyl)-2-(6-methylpyridin-3-yl)quinazolin-4(3H)-one] | Active
33 | Cc1ccc(-c2nc3ccccc3c(=O)n2-c2ccc(C3CC3)cc2)cn1 [Example 68, 3-(4-cyclopropylphenyl)-2-(6-methylpyridin-3-yl)quinazolin-4(3H)-one] | Active
34 | O=c1c2ccccc2nc(-c2ccc(Oc3ccccc3)nc2)n1-c1ccc(Cl)cc1 [Example 50, 3-(4-chlorophenyl)-2-(6-phenoxypyridin-3-yl)quinazolin-4(3H)-one] | Active
35 | O=c1c2ccccc2nc(-c2cnc3c(ccn3S(=O)(=O)c3ccccc3)c2)n1-c1ccc(Cl)cc1 [Example 81, 3-(4-chlorophenyl)-2-(1-(phenylsulfonyl)-1H-pyrrolo[2,3-b]pyridin-5-yl)quinazolin-4(3H)-one] | Active
